Tests used:
[1] = tested on: EGFR-L858R mutant orthotopic tumors; test: EGFR-L858R transgenic mouse orthotopic lung cancer model (CT); format: in vivo; conditions: FIG. 6B
From the text: The advantages of xenograft models are that the antigenic epitopes recognized by T cells are very clear, and the system is pure for elucidation. The disadvantage is that this model cannot simulate the complex carcinogenesis, tumorigenesis, and interactions of tumor and stromal cells of the primary cancer. Therefore, murine xenograft models are less predictive of drug effects in human patients. Therefore, in this example, the effect of the MTC of the present invention in treating tumors was further investigated by using a transgenic lung cancer mouse model. […] One to two months later, lung cancer in mice could be detected and recorded by computed tomography (CT). […]
(2) The size and severity of the tumors was recorded by computed tomography (CT).
(3) The tumor-bearing mice were randomly divided into groups and given placebo (HKI solution) and MTC (40 mg/kg/day in HKI solution). After 2 weeks of treatment, tumor sizes were recorded by CT again.
Mice were intraperitoneally injected with CD8 antibody […] one week in advance to deplete CD8+ cells in the tumor-bearing mice. The mice were then co-treated with MTC and CD8 antibody for 2 weeks, and the tumor size was recorded by CT.

EG-7-PD-L1 cells = test: CTL killing of EG-7-PD-L1 target cells (PI staining, flow cytometry); format: cell-based, mouse; conditions: CTL : EG-7-PD-L1 5:1; 1 μM, 5 μM, 10 μM MTC, 4 hours; FIG. 4A
Experimental: (1) The preparation of CTL cells was described in Example 2.
(2) EG-7-PD-L1 cells were labeled with 5 nM CFSE. CTL cells and EG-7-PD-L1 were mixed at a ratio of 5:1, treated with 1 μM, 5 μM, and 10 μM MTC, respectively, for 4 hours, and then stained with 10 μg/mL PI. The apoptosis of target cells EG-7-PD-L1 was detected by flow cytometry, and then the killing ability of CTL cells to target cells was assessed.

PD-1 recruitment of SHP2 = target: T1, PD-1 recruitment of SHP2 (Homo sapiens, UniProt Q06124+Q15116); test: Split-luciferase PD-1-Cluc / Nluc-SHP2 interaction in 293T cells; format: cell-based; conditions: 293T stable cell line, different concentrations of MTC, 6 hours; FIG. 7A
T1 construct: expressed in transfected cells
From the text: This example preliminarily explored the mechanism by which MTC inhibits PD-1 signaling, and assessed the ability of MTC to affect PD-1 recruitment of SHP2. The binding of PD-1 to ligands can recruit SHP2 protein to the surrounding T cell receptors, thereby inhibiting the activation of T cell receptor proximal kinases, reducing Lck-mediated phosphorylation of ZAP-70 protein and the initiation of downstream signaling pathways. Luciferase can be split into two fragments, N-terminal and C-terminal. When the two fragments are fused with other proteins, the activity of luciferase can be detected if the N-terminal and C-terminal luciferase fragments are close due to the interaction of their fusion proteins. Therefore, the strength of the interaction of the fused proteins can indirectly detected by measuring the activity of luciferase.
(1) Fusion genes PD-1-Cluc and Nluc-SHP2 were transfected into 293T cells with liposomes to construct a stable cell line. The cells were added with different concentrations of MTC and cultured for 6 hours to observe the effect of MTC on the reading of luciferase.

B16-WT cells = test: Killing of B16-WT melanoma cells, with or without CTL cells; format: cell-based, mouse; conditions: FIG. 4E
Experimental: (4) The B16-OVA group received no treatment, and the medium was replaced with water in the Water group. The other groups were treated with 10 μg/mL IFNγ. After 24 hours, except for the B16-OVA group, each group was co-cultured with CTL cells at a ratio of 1:5 for 4 hours, and treated with MTC […], LMT (1 μM) or anti-PD1 (PD-1 antibody, 10 μg/mL, Nivolumab, BMS). The death of B16-OVA in each group was observed by microscope, and then the killing ability of CTL cells to target cells was assessed. […] The IFN-γ+MTC group and the IFN-γ+LMT group were treated with 10 μg/mL IFN-γ for 24 hours. The cells were then mixed with CTL cells at a ratio of 1:5, co-cultured for 4 hours and treated with MTC (1 μM) or LMT (1 μM). The MTC and LMT groups were treated with MTC (10 μM) or LMT (10 μM) only. The killing ability against target cells was observed.

EL4-OVA-mPDL1 cells = test: EL4-OVA-mPDL1 subcutaneous transplanted tumor in Rag1−/− mice given CTL cells; format: in vivo, mouse
Experimental: (1) Lymphoma cells overexpressing chicken ovalbumin OVA and mouse PD-L1, namely EL4-OVA-mPDL1 cells, were resuspended in BD Matrigel, in which, for one side of one mouse, 2×10^6 cells were resuspended in 100 μl BD Matrigel.
(2) The mixture of cells and Matrigel was inoculated into the left and right flanks of Rag1−/− mice subcutaneously, each at a dosage of 100 μl.
(3) When the tumor was fixed about 5 days after inoculation, activated OT-1 T cells (i.e., 2×10^6 CTL cells/mouse) were injected through the tail vein, and the mice were divided into 3 groups, namely the CTL cell group, the CTL cell +10 mg/kg/2 days PD-1 antibody group, and the CTL cell +40 mg/kg/day MTC group.
(4) The length and width of the transplanted tumor of each group of mice were measured from the day of tail vein injection of CTL cells, and every other day, and the tumor volume was calculated as length×width^2/2 (FIG. 5A).

T1 sequence (Q15116 25-288): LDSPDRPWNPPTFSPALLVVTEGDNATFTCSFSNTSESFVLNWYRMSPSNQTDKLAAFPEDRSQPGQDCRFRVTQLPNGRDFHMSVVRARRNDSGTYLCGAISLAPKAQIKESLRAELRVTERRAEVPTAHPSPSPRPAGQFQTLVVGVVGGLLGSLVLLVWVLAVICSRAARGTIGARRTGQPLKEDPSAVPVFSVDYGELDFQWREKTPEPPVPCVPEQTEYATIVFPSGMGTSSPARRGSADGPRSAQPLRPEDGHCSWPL
T1 sequence (Q06124 whole entry): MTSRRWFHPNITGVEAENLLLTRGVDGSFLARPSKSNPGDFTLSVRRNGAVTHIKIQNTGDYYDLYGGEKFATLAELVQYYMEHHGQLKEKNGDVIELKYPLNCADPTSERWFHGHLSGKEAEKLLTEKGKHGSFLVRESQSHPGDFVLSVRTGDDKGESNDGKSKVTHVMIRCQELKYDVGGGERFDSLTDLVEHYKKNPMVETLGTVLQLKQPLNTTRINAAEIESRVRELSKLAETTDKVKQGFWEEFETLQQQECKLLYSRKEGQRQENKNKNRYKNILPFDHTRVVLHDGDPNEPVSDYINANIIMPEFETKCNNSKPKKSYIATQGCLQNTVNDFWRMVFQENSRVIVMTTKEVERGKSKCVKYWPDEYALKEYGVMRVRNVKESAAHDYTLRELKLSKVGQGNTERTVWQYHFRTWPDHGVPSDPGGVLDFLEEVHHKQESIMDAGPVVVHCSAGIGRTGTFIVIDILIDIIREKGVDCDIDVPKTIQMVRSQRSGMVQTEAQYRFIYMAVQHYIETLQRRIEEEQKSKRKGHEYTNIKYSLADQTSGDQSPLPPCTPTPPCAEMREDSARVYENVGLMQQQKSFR

## CN(C)c1ccc2nc3ccc(N(C)C)cc3[s+]c2c1 [MTC, 3,7-bis(dimethylamino)-phenothiazine-5-ium chloride]
[1]; CD8 antibody one week in advance, then MTC and CD8 antibody for 2 weeks
  tumor growth in the case of CD8+ T cell depletion: not inhibited
[1]; MTC 40 mg/kg/day in HKI solution, 14 days
  tumors by CT imaging: basically cleared
EG-7-PD-L1 cells
  killing ability of CTL cells against EG-7-PD-L1: significantly restored
PD-1 recruitment of SHP2
  readings of luciferase (PD-1-Cluc / Nluc-SHP2 interaction): reduce the readings of luciferase
B16-WT cells; IFN-γ 10 μg/mL 24 hours, B16-WT : CTL 1:5, 4 hours, MTC (1 μM) or LMT (1 μM)
  killing effect on B16-WT cells, combination with CTL cells: no killing effect
B16-WT cells; MTC (10 μM) or LMT (10 μM) only
  killing effect on B16-WT cells, compound only: no killing effect
EL4-OVA-mPDL1 cells; CTL cells by tail vein, MTC 40 mg/kg/day intragastric, PD-1 antibody 10 mg/kg/2 days intraperitoneal, vs CTL cell-only group, FIGS. 5B, C, D
  tumor growth (tumor volume and tumor weight): strongly inhibited tumor growth
EL4-OVA-mPDL1 cells; MTC 40 mg/kg/day vs PD-1 antibody 10 mg/kg/2 days
  therapeutic effect of CTL+MTC compared with CTL+PD-1 antibody treatment group: better therapeutic effect
